Article PMC13198257, “An aerosolized dual-action autotaxin inhibitor-PPARγ agonist for the treatment of pulmonary fibrosis” (Cell Reports Medicine, 2026)

Tested on: lung gene expression
Test: RNA sequencing of lung tissue (BLM/EL244 vs BLM)
Format: in vivo, mouse
Details: lung tissue, BLM/EL244 vs BLM
Experimental: RNA quality was assessed using an Agilent TapeStation 4150 with the High Sensitivity […] ScreenTape (Agilent), according to the manufacturer’s protocols. For library preparation, the QuantSeq 3’mRNA-Seq Library Prep Kit (Lexogen) was used according to manufacturer’s instructions. Briefly, 500 ng of RNA from each sample was used for first-strand synthesis, followed by RNA template removal, and second-strand synthesis initiated by random primers. In-line barcodes were introduced at this step, and this was followed by magnetic bead-based purification. The resulting libraries were amplified for 15 cycles and re-purified, with quantity and quality assessed on a Qubit 4 Fluorometer with the Invitrogen Qubit dsDNA HS Assay and an Agilent Tapestation 4150 with the High Sensitivity D1000 assay kit, respectively. The quantified libraries were pooled equimolarly; 50ng of total library mix was used for Adapter Conversion PCR Amplification using the Universal Library Conversion Kit (App-A), Version: V1.0 (MGI Tech Co., Ltd.), according to the manufacturer’s instructions.
The quantity and quality of the purified adapter conversion PCR (AC-PCR) product were evaluated on a Qubit 4 Fluorometer with the Invitrogen Qubit dsDNA HS Assay and on an Agilent Tapestation 4150 with the High Sensitivity D1000 assay kit, respectively. This was followed by DNA denaturation, Single-Strand Circularisation, Enzymatic Digestion, Enzymatic Digestion Product Cleanup and Quality Control steps on 1 pmol of AC-PCR product, according to the Universal Library Conversion Kit (App-A) User Manual (Version: A3).
Finally, 60 fmol of ssCirDNA were used for DNB preparation and sequencing on a DNBSEQ-G400 platform at the BSRC Alexander Fleming Genomics Facility, using a G400 App-A FCS SE100 High-throughput Sequencing Set (MGI Tech Co., Ltd.), according to the manufacturer’s instructions.
Alignment of the FASTQ files was performed against the mouse genome build mm10 using a custom Bash script.[143] Read counting on the 3′ UTRs and differential expression analysis were conducted using the metaseqR2 bioconductor package.[144] Genes corresponding to the following biotypes were excluded: polymorphic_pseudogene, processed_transcript, pseudogene, IG_V_pseudogene, misc_RNA, IG_C_gene, IG_J_gene, IG_D_gene, IG_LV_gene, TR_V_gene, TR_V_pseudogene, TEC, and processed_pseudogene. Gene counts were normalized with DESEQ[145] through metaseqR2. Genes with more than 10 counts in at least 50% of the samples were kept for further processing. For differential expression analysis, the PANDORA algorithm[146] was used to estimate a meta p-value integrating the results from the DESEQ, DESEQ2,[147] edgeR,[148] limma,[149] NBPSeq,[150] and NOISeq[151] algorithms. All additional parameters were set to default values.
Pathway enrichment analysis was performed for the Gene Ontology Biological process (BP) and Molecular Function (MF) terms through GeneCodis 4.[152] The volcano plots, scatterplots, Venn diagrams, and dot plots were generated using the ggplot2 Bioconductor package.

O=C1NC(=O)C(Cc2ccc(OCCC3CCN(C(=O)OCc4cc(Cl)cc(Cl)c4)CC3)cc2)S1 (stereo not shown) [EL244, 3,5-dichlorobenzyl 4-(2-(4-((2,4-dioxothiazolidin-5-yl)methyl)phenoxy)ethyl)piperidine-1-carboxylate]
Prrx2 nFC: 0.30
Prss23 log2 nFC: 0.67
Prss23 nFC: 1.60
Ptprb log2 nFC: 0.67
Ptprb nFC: 1.59
Rad51 log2 nFC: -1.90
Rad51 nFC: 0.27
Rad54l log2 nFC: -1.87
Rad54l nFC: 0.27
Rbm33 log2 nFC: 0.58
Rbm33 nFC: 1.50
Rcan1 log2 nFC: -0.84
Rcan1 nFC: 0.56
Rcn3 log2 nFC: -0.66
Rcn3 nFC: 0.63
Retnla log2 nFC: -2.32
Retnla nFC: 0.20
Rgs16 log2 nFC: -2.59
Rgs16 nFC: 0.17
Rnaset2a log2 nFC: -0.70
Rnaset2a nFC: 0.62
Rps27l log2 nFC: -0.70
Rps27l nFC: 0.62
Rrm1 log2 nFC: -0.81
Rrm1 nFC: 0.57
Rrm2 log2 nFC: -2.56
Rrm2 nFC: 0.17
S100a11 log2 nFC: -0.60
S100a11 nFC: 0.66
Saa3 log2 nFC: -2.75
Saa3 nFC: 0.15
Sash1 log2 nFC: 0.59
Sash1 nFC: 1.50
Scarb1 log2 nFC: -0.72
Scarb1 nFC: 0.61
Scgb3a2 log2 nFC: 0.65
Scgb3a2 nFC: 1.56
Selenop log2 nFC: 0.58
Selenop nFC: 1.50
Sfrp1 log2 nFC: -1.73
Sfrp1 nFC: 0.30
Sftpc log2 nFC: 0.62
Sftpc nFC: 1.54
Sgo2a log2 nFC: -1.68
Sgo2a nFC: 0.31
Sh3pxd2b log2 nFC: -0.78
Sh3pxd2b nFC: 0.58
Shcbp1 log2 nFC: -1.60
Shcbp1 nFC: 0.33
Sirpa log2 nFC: -0.71
Sirpa nFC: 0.61
Ska1 log2 nFC: -2.52
Ska1 nFC: 0.17
Slc7a11 log2 nFC: -1.50
Slc7a11 nFC: 0.35
Slc36a1 log2 nFC: -0.81
Slc36a1 nFC: 0.57
Slc39a1 log2 nFC: -0.63
Slc39a1 nFC: 0.65
Snrnp40 log2 nFC: -0.60
Snrnp40 nFC: 0.66
Snrpd1 log2 nFC: -0.64
Snrpd1 nFC: 0.64
Socs3 log2 nFC: -0.62
Socs3 nFC: 0.65
Sox4 log2 nFC: -0.80
Sox4 nFC: 0.57
Sox9 log2 nFC: -1.42
Sox9 nFC: 0.37
Spag5 log2 nFC: -1.65
Spag5 nFC: 0.32
Sparc log2 nFC: -0.74
Sparc nFC: 0.60
Spc25 log2 nFC: -2.02
Spc25 nFC: 0.25
Spp1 log2 nFC: -1.50
Spp1 nFC: 0.35
Ssc5d log2 nFC: -1.71
Ssc5d nFC: 0.31
Ssh2 log2 nFC: 0.66
Ssh2 nFC: 1.58
Sting1 log2 nFC: -0.77
Sting1 nFC: 0.59
Stmn1 log2 nFC: -0.70
Stmn1 nFC: 0.62
Stxbp6 log2 nFC: 0.64
Stxbp6 nFC: 1.56
Tacc2 log2 nFC: 0.66
Tacc2 nFC: 1.57
Taf10 log2 nFC: -0.59
Taf10 nFC: 0.67
Tceal9 log2 nFC: -0.69
Tceal9 nFC: 0.62
Tcf19 log2 nFC: -1.42
Tcf19 nFC: 0.37
Tfdp1 log2 nFC: -0.74
Tfdp1 nFC: 0.60
Tgfbi log2 nFC: -0.68
Tgfbi nFC: 0.62
Tgif1 log2 nFC: -0.75
Tgif1 nFC: 0.60
Thbs4 log2 nFC: -2.34
Thbs4 nFC: 0.20
Thoc6 log2 nFC: -0.81
Thoc6 nFC: 0.57
Timm44 log2 nFC: -0.72
Timm44 nFC: 0.61
Timp1 log2 nFC: -2.30
Timp1 nFC: 0.20
Tk1 log2 nFC: -2.01
Tk1 nFC: 0.25
Tmem37 log2 nFC: -0.82
Tmem37 nFC: 0.57
Tmem252 log2 nFC: -0.70
Tmem252 nFC: 0.62
Tmsb10 log2 nFC: -0.58
Tmsb10 nFC: 0.67
Tnc log2 nFC: -2.35
Tnc nFC: 0.20
Tnfrsf1b log2 nFC: -0.70
Tnfrsf1b nFC: 0.61
Tnip3 log2 nFC: -1.47
Tnip3 nFC: 0.36
Tns1 log2 nFC: 0.67
Tns1 nFC: 1.59
Top2a log2 nFC: -1.97
Top2a nFC: 0.25
Tpx2 log2 nFC: -2.92
Tpx2 nFC: 0.13
Trem2 log2 nFC: -1.42
Trem2 nFC: 0.37
Trip13 log2 nFC: -1.42
Trip13 nFC: 0.37
Tspan7 log2 nFC: 0.64
Tspan7 nFC: 1.56
Tubb5 log2 nFC: -0.77
Tubb5 nFC: 0.59
Tubb6 log2 nFC: -0.75
Tubb6 nFC: 0.59
Txnip log2 nFC: 0.65
Txnip nFC: 1.56
Tyrobp log2 nFC: -0.69
Tyrobp nFC: 0.62
Ube2c log2 nFC: -1.80
Ube2c nFC: 0.29
Uhrf1 log2 nFC: -1.72
Uhrf1 nFC: 0.30
Utrn log2 nFC: 0.68
Utrn nFC: 1.60
Vangl2 log2 nFC: -0.76
Vangl2 nFC: 0.59
Xcl1 log2 nFC: -1.81
Xcl1 nFC: 0.29
Zfp46 log2 nFC: -0.70
Zfp46 nFC: 0.62
Zranb3 log2 nFC: -1.43
Zranb3 nFC: 0.37
Zwilch log2 nFC: -1.54
Zwilch nFC: 0.34
log2 nFC 1500009L16Rik: -1.23
log2 nFC 2200002D01Rik: -0.88
log2 nFC AA467197: -1.39
log2 nFC Adamts2: -1.00
log2 nFC Areg: -1.03
log2 nFC Arhgap11a: -1.13
log2 nFC Armcx4: -1.32
log2 nFC Asf1b: -1.14
log2 nFC Bcl2a1b: -1.15
log2 nFC Bcl2a1d: -1.29
log2 nFC Bub1b: -1.19
log2 nFC C1qtnf5: -0.87
log2 nFC C1qtnf6: -1.38
log2 nFC Ccdc8: -1.11
log2 nFC Ccl9: -1.37
log2 nFC Ccl17: -0.95
log2 nFC Cd68: -0.99
log2 nFC Cd72: -1.01
log2 nFC Cd248: -1.25
log2 nFC Cd300c2: -0.89
log2 nFC Cdca2: -1.33
log2 nFC Cenpa: -1.31
log2 nFC Cenpw: -1.33
log2 nFC Cercam: -1.37
log2 nFC Ch25h: -0.91
log2 nFC Cilp: -1.39
log2 nFC Clcn5: -0.92
log2 nFC Clec4a2: -1.26
log2 nFC Clec4n: -1.39
log2 nFC Clec5a: -1.14
log2 nFC Clec11a: -1.00
log2 nFC Clec12a: -0.91
log2 nFC Col1a2: -1.41
log2 nFC Col8a1: -1.19
log2 nFC Col12a1: -0.90
log2 nFC Col15a1: -1.10
log2 nFC Col16a1: -0.92
log2 nFC Cotl1: -0.88
log2 nFC Csf2rb2: -0.99
log2 nFC Cstb: -0.95
log2 nFC Ctsk: -0.98
log2 nFC Ctss: -0.92
log2 nFC Cx3cr1: -1.17
log2 nFC Cyp7b1: -1.41
log2 nFC Dbn1: -0.88
log2 nFC Dclk1: -0.86
log2 nFC Diaph3: -1.13
log2 nFC Dio2: -1.39
log2 nFC Dok2: -1.37
log2 nFC Dut: -0.89
log2 nFC Egr2: -0.89
log2 nFC Epha4: -0.89
log2 nFC F10: -1.11
log2 nFC Fam20c: -1.06
log2 nFC Fbn1: -1.03
log2 nFC Fcgr1: -1.30
log2 nFC Fcgr2b: -1.08
log2 nFC Fcrls: -1.35
log2 nFC Fen1: -1.00
log2 nFC Fgf13: -1.40
log2 nFC Fkbp10: -1.25
log2 nFC Fndc1: -1.11
log2 nFC Fscn1: -1.22
log2 nFC Fst: -1.05
log2 nFC Fstl1: -1.21
log2 nFC Gas2l3: -1.32
log2 nFC Gm13889: -0.85
log2 nFC Gm25380: -1.01
log2 nFC Gm42674: -1.18
log2 nFC Gm49339: -0.94
